According to patent US5234934A, “Aminopropanol derivatives, process for their preparation and pharmaceutical compositions comprising the same” (priority 1989, dated 1993):
Like-named read-outs stand apart in the source and are kept apart here.

Columns and labels:
[1] = acute toxicity test in mice (Litchfield and Wilcoxon); type: in vivo, mouse; settings: mouse, in vivo, po., 14 days observation
Protocol: The test for acute toxicity was carried out by using 10 white mice (CFLP strain) (both male and female), weighing 18 to 22 g in each dose group. The compounds of the invention were administered orally in a dose of 20 ml/kg.
The animals were kept in a plastic box on wood chips in a room of room temperature. They could consume tap water and standard mouse feed ad libitum. The toxicity data were determined by the method of Litchfield and Wilcoxon (Litchfield, J. T., Wilcoxon, F. W.: J. Pharmacol. Exp. Ther. 96, 99/1949/).

gastric acid secretion = gastric acid secretion test (Shay); type: in vivo, rat; settings: Rattus norvegicus, read-out: Inhibition of free acid, %
Protocol: The test was carried out according to Shay's operational method. […] On the day of the test the pylorus of the animals was bound under ether narcosis. The test compounds were administered orally 3 hours before the operation. The animals of the control group were administered with the carrier only. 4 hours after the operation the stomach was removed, the content thereof was centrifuged and the amount of free acid was determined by titration with 0.1N sodium hydroxide.

[2] = system: peristalty of stomach and intestines; assay: effect exerted on the peristalty of stomach and intestines (Stickney et al., carbon suspension); type: in vivo, mouse; settings: for ED50: Mus musculus, read-out: ED50 (antiperistaltic); for TI (therapeutic index): antiperistaltic
Protocol: The antiperistaltic effect of the compounds was examined by the method of Stickney et al. on white mice of both sexes, weighing 20 to 25 g. The compounds to be tested were administered per os 60 minutes before the addition of carbon suspension to groups containing 10 mice each. The animals of the control groups were treated at the same time and in the same manner with the carrier only. The mice were killed 10 minutes after the addition of the carbon suspension, and the whole length of the intestines as well as the length of the intestines filled with carbon suspension were measured.

[3] = system: aconitine-induced ECG alterations; assay: animal or person; type: in vivo, rat; settings: Rattus norvegicus, iv; for change in vivo at 4 mg/kg: read-out: Effect % (antiarrhythmic); for ED50: read-out: ED50 iv. (antiarrhythmic)
Protocol: The test was carried out by using the modified method of Marmo et al. on rats weighing 160 to 200 g. The animals were narcotised by ethyl uretane (1.2 g/kg ip.). Aconitin was administered intravenously in a dose of 75 /ug/kg in the form of a bolus injection. The ECG alterations were monitored in standard II lead by 5 minutes after the administration of aconitine. The observed alterations were classified into classes 0 to 5. The compounds of the invention were administered 2 minutes or 60 minutes before the parenteral or oral administration of aconitine, respectively. […]
class 1: sometimes an extrasystole occurs class 2: each second one is an extrasystole class 3: extrasystoles in groups class 4: each one is an extrasystole class 5: fibrillation, death
(Marmo, E., DiGiacomo, S., Imperatore, A.: Arzeimittel-Forschung 20, 12/1970/)

hexobarbital narcosis = assay: narcosis potentiating effect (hexobarbital sleeping time); settings: for ED50: Mus musculus, po, read-out: ED50 (narcosis potentiation); for TI (therapeutic index): narcosis potentiation, mice, po.
Protocol: The narcosis potentiating effect of the compounds of the invention were examined on white mice, with 6 animals in each group. The mice were administered orally with the compounds of the invention, then both the control and the test groups were intravenously added 40 mg/kg of hexobarbital in order to make the mice sleep (Kaergard et al.).

nervus ischiadicus = assay: local analgesic effect (Truant d'Amato's method); type: in vivo; settings: for EC50 %: 0.2 ml injected around nervus ischiadicus; for Duration of effect: in a conc. of 0.5%
Protocol: The tests were carried out according to Truant d'Amato's method. 0.2 ml of test material was injected around the nervus ischiadicus in the middle of femur with a needle of 1 cm length. The criterion of analgesic effect was the lack of the motoric control of foot muscles.
The duration of effect was registered and the 50 percentile effective concentration (EC50) was calculated on the basis of the dose-effect curve. Lidocain was used as comparative material. (Truant, A. P., D'Amato, D.: Acta Chir Scand. 116, 351/1958/)

Compound | LD50 at 336 h [1] [mg/kg] | ED50 ([2]; po., mice) [mg/kg] | TI (therapeutic index) ([2]; po., mice) | ED50 (hexobarbital narcosis) [mg/kg] | TI (therapeutic index) (hexobarbital narcosis) | other results
CN1CCN(CC(O)CO/N=C2\CCCC\C2=C/c2ccccc2)CC1 (racemic) [Example 4, R,S-2-(E)-Phenylmethylene-1-(E)-[3-(4-methyl-1-piperazinyl)-2'-hydroxy-propoxyimino]-cyclohexane] | 1800 |  |  |  |  | inhibition in vivo at 200 mg/kg (gastric acid secretion; dose 200 mg/kg po., rats): 77%
OC(CO/N=C1\CCCC\C1=C/c1ccccc1)CN1CCN(c2ccccc2)CC1 (racemic) [Example 5, R,S-2-(E)-Phenylmethylene-1-(E)-[3-(4-phenyl-1-piperazinyl)-2-hydroxy-propoxyimino]-cyclohexane] | > 1000 | 70 | 14 |  |  | 
OC(CO/N=C1\CCCC\C1=C/c1ccccc1)CN1CCN(Cc2ccccc2)CC1 (racemic) [Example 6, R,S-2-(E)-Phenylmethylene-1-(E)-[3-(4-phenylmethyl-1-piperazinyl)-2-hydroxy-propoxyimino]-cyclohexane] | > 1000 | 140 | 7 |  |  | 
OC(CO/N=C1\CCCC\C1=C/c1ccccc1)CN1CCN(c2ccc(Cl)cc2)CC1 (racemic) [Example 12, R,S-2-(E)-Phenylmethylene-1-(E)-{[4-(4-chlorophenyl)-1-piperazinyl]-2-hydroxy-propoxyimino}-cyclohexane] | 1000 | ~200 | about 5 |  |  | 
OCCN1CCN(CC(O)CO/N=C2\CCCC\C2=C/c2ccccc2)CC1 (racemic) [Example 13] | > 1000 |  |  |  |  | inhibition in vivo at 200 mg/kg (gastric acid secretion; dose 200 mg/kg po., rats): 74%
OC(CO/N=C1\CCCCC\C1=C/c1ccccc1)CN1CCOCC1 (racemic) [Example 15, R,S-2-(E)-Phenylmethylene-1-(E)-(3-morpholino-2-hydroxypropoxyimino)-cycloheptane] | > 1000 | 140 | 7 |  |  | 
OC(CO/N=C1\CCCCCC\C1=C/c1ccccc1)CN1CCOCC1 (racemic) [Example 18, R,S-2-(E)-Phenylmethylene-1-(E)-(3-morpholino-2-hydroxy-propoxyimino)-cyclooctane] | > 1000 |  |  | 25 | > 40 | change in vivo at 4 mg/kg [3]: -50%; inhibition in vivo at 200 mg/kg (gastric acid secretion; dose 200 mg/kg po., rats): 68%
CC(C)N(CC(O)CO/N=C1\CCCCCC\C1=C/c1ccccc1)C(C)C (racemic) [Example 19, R,S-2-(E)-Phenylmethylene-1-(E)-{3-[bis(1-methylethyl)-amino]-2-hydroxy-propoxyimino}-cyclooctane] | 800 |  |  | 26 | 31 | ED50 [3]: 3.29 mg/kg; change in vivo at 4 mg/kg [3]: -76%
CN1CCN(CC(O)CO/N=C2\CCCCCC\C2=C/c2ccccc2)CC1 (racemic) [Example 20, R,S-2-(E)-Phenylmethylene-1-(E)-[3-(4-methyl-1-piperazinyl)-2-hydroxy-propoxyimino]-cyclooctane] | > 1000 | ~100 | about 10 | 21.5 | > 46.5 | 
CC(C)N(CC(O)CO/N=C1\CCC\C1=C/c1ccccc1)C(C)C (racemic) [Example 21, R,S-2-(E)-Phenylmethylene-{3-[bis-(1-methylethyl)-amino]-2-hydroxy-propoxyimino}-cyclopentane] | 700 |  |  |  |  | change in vivo at 4 mg/kg [3]: -46%; EC50 % (nervus ischiadicus): 0.24%; Duration of effect (nervus ischiadicus): 89 min
CC(C)(C)NCC(O)CO/N=C1\CCCC\C1=C/c1ccccc1Cl (racemic) [Example 23, R,S-(E)-(2-Chlorophenyl-methylene)-1-(E)-[3-(1,1-dimethylethylamino)-2-hydroxy-propoxyimino]-cyclohexane] | 130 |  |  | 16 | 8 | ED50 [3]: 0.36 mg/kg; change in vivo at 4 mg/kg [3]: -83%
CCCCNCC(O)CO/N=C1\CCCC\C1=C/c1ccc(Cl)cc1 (racemic) [Example 29, R,S-2-(E)-(4-Chlorophenyl-methylene)-1-(E)-(3-butylamino-2-hydroxy-propoxyimino)-cyclohexane] | 1300 |  |  | 30 | 43 | inhibition in vivo at 260 mg/kg (gastric acid secretion; dose 260 mg/kg po., rats): 87%
CC(C)CNCC(O)CO/N=C1\CCCC\C1=C/c1ccc(Cl)cc1 (racemic) [Example 30, R,S-2-(E)-(4-Chlorophenyl-methylene)-1-(E)-[3-(2-methylpropylamino)-2-hydroxy-propoxyimino]-cyclohexane] | 1100 | 130 | 8 |  |  | 
C#CC(C)(C)NCC(O)CO/N=C1\CCCC\C1=C/c1ccc(Cl)cc1 (racemic) [Example 32, R,S-2-(E)-(4-Chlorophenyl-methylene)-1-(E)-[3-(1,1-dimethylpropin-2-yl-amino)-2-hydroxy-propoxyimino]-cyclohexane] | > 2000 |  |  | 50 | > 40 | inhibition in vivo at 400 mg/kg (gastric acid secretion; dose 400 mg/kg po., rats): 62%
CCCCNCC(O)CO/N=C1\CCCC\C1=C/c1ccc(Cl)c(Cl)c1 (racemic) [Example 33, R,S-2-(E)-(3,4-Dichlorophenyl-methyl)-1-(E)-(3-butylamino-2-hydroxy-propoxyimino)-cyclohexane] | > 1000 |  |  |  |  | inhibition in vivo at 200 mg/kg (gastric acid secretion; dose 200 mg/kg po., rats): 100%
CCCNCC(O)CO/N=C1\CCCC\C1=C/c1c(Cl)cccc1Cl (racemic) [Example 35, R,S-2-(E)-(2,6-Dichlorophenyl-methylene)-1-(E)-(3-propylamino-2-hydroxy-propoxyimino)-cyclohexane] | 600 |  |  | 11.5 | 52 | ED50 [3]: 1.84 mg/kg; change in vivo at 4 mg/kg [3]: -100%
COc1ccccc1/C=C1\CCCC\C1=N/OCC(O)CN1CCN(c2ccccc2OC)CC1 (racemic) [Example 38, R,S-2-(E)-(2-Methoxyphenyl-methylene)-1-(E)-{[4-(2-methoxyphenyl)-1-piperazinyl]-2-hydroxy-propoxyimino}-cyclohexane] | > 1000 | 23 | 44 | 61 | 16 | 
COc1ccc(/C=C2\CCCC\C2=N/OCC(O)CNCCCN(C)C)cc1 (racemic) [Example 41, R,S-2-(E)-(4-Methoxyphenyl-methylene)-1-(E)-[3-(3-dimethylamino-1-propylamino)-2-hydroxy-propoxyimino]-cyclohexane] | > 1000 |  |  |  |  | inhibition in vivo at 200 mg/kg (gastric acid secretion; dose 200 mg/kg po., rats): 67%
CN(CC(O)CO/N=C1\CCCC\C1=C/c1ccc(Cl)cc1)C1CCCCC1 (racemic) [Example 45, R,S-2-(E)-(4-Chlorophenyl-methylene)-1-(E)-[3'-(N-methyl-N-cyclohexylamino)-2-hydroxy-propoxyimino]-cyclohexane] | > 1000 |  |  |  |  | inhibition in vivo at 200 mg/kg (gastric acid secretion; dose 200 mg/kg po., rats): 100%
CN/C(=N/CCSCc1nc[nH]c1C)NC#N [Cimetidine, reference compound] |  |  |  |  |  | inhibition in vivo at 100 mg/kg (gastric acid secretion; po): 66%; inhibition in vivo at 200 mg/kg (gastric acid secretion; po): 91%
CCN(CC)CC(=O)Nc1c(C)cccc1C [Lidocain, reference compound] |  |  |  |  |  | EC50 % (nervus ischiadicus): 0.19%; Duration of effect (nervus ischiadicus): 34 min
COc1ccc(Cc2nccc3cc(OC)c(OC)cc23)cc1OC [Papaverine, reference compound] |  |  |  |  |  | inhibition (antiperistaltic) ([2]; 280 mg/kg po., mice): 36%; ED50 ([2]; po): > 280 mg/kg
COc1cc(C(=S)N2CCOCC2)cc(OC)c1OC [Trithiozine, reference compound] |  |  |  |  |  | inhibition in vivo at 100 mg/kg (gastric acid secretion; po): 30%; inhibition in vivo at 400 mg/kg (gastric acid secretion; po): 63%
